Assay: solvent given as SMILES

CC(C)(C)c1ccc2oc3nc4oc5ccc(-n6c7ccccc7c7cc(-n8c9ccccc9c9ccccc98)ccc76)cc5c4cc3c2c1
absorption maximum (in ClC(Cl)Cl): 348 nm

CCCCCCCCC(=O)Oc1cc2[nH]c(cc2CCOC)c2nc(ccc3[nH]c(cc3CCOC)c3nc1C(CCOC)=C3)C(CCOC)=C2
absorption maximum (in Cc1ccccc1): 647 nm

Clc1cccc(-c2nc3sc4ccccc4c3s2)c1
absorption maximum (in CS(C)=O): 351 nm

O=[N+]([O-])c1cccc2c1ccc1[n+]2[B-](F)(F)n2c-1cc1c3ccccc3c3ccccc3c12
absorption maximum (in ClCCl): 518 nm

CC[n+]1nc2cc3c(cc2c2cc(C)ccc21)N(C)CCC3
absorption maximum (in O): 487 nm

CC(C)c1cc(C(C)C)c(B2c3ccccc3Oc3cc(N4c5ccccc5C5(c6ccccc6-c6ccccc65)c5ccccc54)ccc32)c(C(C)C)c1
absorption maximum (in Cc1ccccc1): 430 nm

CN(C)c1ccc(-c2nc3cc(C(F)(F)F)ccc3n2-c2ccccc2)cc1
absorption maximum (in CC#N): 332 nm

Cc1ccc(-c2sc(/C(C#N)=C/c3ccc(C#N)cc3)nc2-c2ccc(Cl)cc2)cc1
absorption maximum (in CC#N): 383 nm

CCCCc1ccc2c(c1)c1ccc3cccc4c3c1c1c2c2cccc3ccc5c6cc(CCCC)ccc6c4c1c5c32
absorption maximum (in ClCCl): 492 nm

CCCCCCCCC1(CCCCCCCC)c2cc(-c3ccc([N+](=O)[O-])cc3)ccc2-c2ccc(-c3ccc([N+](=O)[O-])cc3)cc21
absorption maximum (in C1CCCCC1): 357 nm
absorption maximum (in CCO): 368 nm
absorption maximum (in CN(C)C=O): 380 nm
absorption maximum (in CS(C)=O): 382 nm
absorption maximum (in Cc1ccccc1): 365 nm
absorption maximum (in ClC(Cl)Cl): 373 nm

O=C(O)CCCc1ccc2ccc3cccc4ccc1c2c34
absorption maximum (in CO): 375 nm

F[B-]1(F)n2c(ccc2-c2cccs2)C(c2ccc(Br)cc2)=C2C=CC(c3cccs3)=[N+]21
absorption maximum (in ClC(Cl)Cl): 622 nm

COc1ccc(C(=Cc2ccc(/C=C(\C#N)c3ccccc3)cc2)c2ccc(OC)cc2)cc1
absorption maximum (in C1CCOC1): 388 nm

CCCSC1=[N+]2C(=C(c3ccccc3)c3ccc(SCCC)n3[B-]2(F)F)C=C1SC#N
absorption maximum (in CC#N): 536 nm
absorption maximum (in CCCCCC): 556 nm
absorption maximum (in CCOC(C)=O): 545 nm
absorption maximum (in CO): 536 nm
absorption maximum (in ClCCl): 545 nm

CC(C)(C)NC(=O)c1ccc(-c2cc3ccccc3o2)c2ccc3c4ccccc4c4ccccc4c3c12
absorption maximum (in ClCCl): 364 nm

CC1=CC(Br)=CN2C[n+]3cc(Br)cc(C)c3N=C12
absorption maximum (in CO): 436 nm

Cc1cc(-c2ccccc2C)cc(C)[o+]1
absorption maximum (in CC#N): 327 nm
absorption maximum (in ClCCl): 343 nm

CN(C)c1ccc(C2=Nc3sc4cc(F)ccc4[n+]3[B-](F)(F)O2)cc1
absorption maximum (in C1CCOC1): 425 nm
absorption maximum (in CC#N): 422 nm
absorption maximum (in CC(C)=O): 426 nm
absorption maximum (in Cc1ccccc1): 423 nm
absorption maximum (in ClCCl): 425 nm

C(=C\c1ccc(N(c2ccccc2)c2ccccc2)cc1)/c1ccccc1
absorption maximum (in CC#N): 362 nm
absorption maximum (in CCCCCC): 362 nm

O=[N+]([O-])c1ccc([N+]2=Cc3ccc4c5c(ccc4c3O[B-]2(c2ccccc2)c2ccccc2)C=[N+](c2ccc([N+](=O)[O-])cc2)[B-](c2ccccc2)(c2ccccc2)O5)cc1
absorption maximum (in Cc1ccccc1): 536 nm
absorption maximum (in ClCCl): 541 nm

N#Cc1c(-n2c3ccc(I)cc3c3cc(I)ccc32)c(-n2c3ccc(I)cc3c3cc(I)ccc32)c(C#N)c(-n2c3ccc(I)cc3c3cc(I)ccc32)c1-n1c2ccc(I)cc2c2cc(I)ccc21
absorption maximum (in Cc1ccccc1): 361 nm

c1cc2ccc3ccc(-n4c5ccccc5c5ccccc54)c4ccc(c1)c2c34
absorption maximum (in CCCCCC): 344 nm
absorption maximum (in CCO): 344 nm
absorption maximum (in CCOC(C)=O): 344 nm
absorption maximum (in ClCCl): 347 nm

Cc1c(C)c2c3ccccc3[nH]c2c2ccccc12
absorption maximum (in ClCCl): 302 nm

COc1c2ccccc2c(OC)c2c(C#CC(C)(C)C)c3cc4ccccc4cc3c(C#CC(C)(C)C)c12
absorption maximum (in ClCCl): 672 nm

COc1ccc(C#Cc2ccc(C#N)cc2)cc1OC
absorption maximum (in C1COCCO1): 326 nm
absorption maximum (in CC#N): 325 nm
absorption maximum (in CCCCCC): 343 nm
absorption maximum (in CCCCCCC): 344 nm
absorption maximum (in CCCO): 329 nm
absorption maximum (in CCOC(C)=O): 326 nm
absorption maximum (in CS(C)=O): 334 nm
absorption maximum (in ClC(Cl)Cl): 329 nm
absorption maximum (in ClCCl): 331 nm

CCCCN(CCCC)c1ccc2c#cc3cc4c#cc5ccc(N(CCCC)CCCC)cc5c#cc#cc5cc(C(F)(F)F)ccc5c#cc4cc3c#cc3ccc(C(F)(F)F)cc3c#cc#cc2c1
absorption maximum (in ClCCl): 454 nm

Fc1ccc2sc3nc(-c4ccccc4)sc3c2c1
absorption maximum (in CS(C)=O): 345 nm

F[B-]1(F)n2c(Cl)c(Cl)c(Br)c2C(Cl)=C2C(Br)=C(Cl)C(Cl)=[N+]21
absorption maximum (in ClCCl): 546 nm

COc1ccc(C2=C(c3ccc(OC)cc3)c3cccc4c5c(cc(c34)O2)=NC(C#N)C(C#N)N=5)cc1 (configuration not stated)
absorption maximum (in ClCCl): 511 nm

c1ccc2c(c1)ccc1ccc3ccc4ccccc4c3c12
absorption maximum (in ClC(Cl)Cl): 393 nm

c1ccc(N(c2ccccc2)c2ccc(-c3ccc4c(c3)C3(c5cc(-c6ccc(N(c7ccccc7)c7ccccc7)cc6)ccc5-4)c4ccccc4N(c4ccccc4)c4ccccc43)cc2)cc1
absorption maximum (in ClCCl): 372 nm

N#CC(C#N)=Cc1ccc2c(c1)[nH]c1c3ccccc3sc21
absorption maximum (in ClCCl): 445 nm

CCCCCCc1sc(CCCCCC)c2c3ccsc3c3sccc3c12
absorption maximum (in ClC(Cl)Cl): 383 nm

CCOC(=O)c1sc2nc3c(c(C#N)c2c1N)CCCCCC3
absorption maximum (in c1ccccc1): 410 nm

COc1ccccc1-c1nc(-c2ccccc2)c2ccccn12
absorption maximum (in C1CCCCC1): 303 nm
absorption maximum (in CC#N): 374 nm
absorption maximum (in CO): 298 nm
absorption maximum (in ClCCl): 374 nm
absorption maximum (in O): 330 nm

CCN(CC)c1ccc2c(c1)OC1=C(/C=C/C3=[N+](C)c4ccccc4C3(C)C)CCCC1=C2c1ccccc1C(=O)O
absorption maximum (in CC#N): 708 nm
absorption maximum (in CCO): 700 nm
absorption maximum (in CO): 700 nm
absorption maximum (in ClC(Cl)Cl): 716 nm

[O-]c1ccccc1/C=N/c1ccccc1/N=C/c1ccccc1[O-]
absorption maximum (in C1CCOC1): 380 nm

O=C1CCCC2=C1C(c1cccc(Cl)c1)c1c(c3ccccc3oc1=O)N2 (configuration not stated)
absorption maximum (in CS(C)=O): 373 nm

F[B-]1(F)n2c(/C=C/c3ccc(C(=C(c4ccccc4)c4ccccc4)c4ccccc4)cc3)ccc2C(c2ccccc2)=C2C=CC(/C=C/c3ccc(C(=C(c4ccccc4)c4ccccc4)c4ccccc4)cc3)=[N+]21
absorption maximum (in C1CCOC1): 665 nm

c1ccc(N(c2ccccc2)c2ccc(-c3ccc(-c4ccc(-c5cccs5)c5nsnc45)s3)cc2)cc1
absorption maximum (in ClC(Cl)Cl): 495 nm

C(=C\c1ccc(Nc2ccccc2)cc1)/c1ccccc1
absorption maximum (in CC#N): 351 nm
absorption maximum (in CCCCCC): 346 nm

C[Si]1(C)O[Si](C)(C)c2cc3nc4ccc([N+](=O)[O-])cc4c(-c4ccccc4)c3cc2[Si](C)(C)O1
absorption maximum (in ClCCl): 376 nm

Cc1cc(O)c(C(=O)/C=C/c2ccccc2O)c(=O)o1
absorption maximum (in CC#N): 359 nm
absorption maximum (in ClCCl): 360 nm

CC1=CC(/C=C/c2ccc(OCCCN=[N+]=[N-])cc2)=[N+]2C1=C(c1ccccc1)c1c(C)cc(C)n1[B-]2(F)F
absorption maximum (in CO): 564 nm

COc1cc(OC)cc(C2=[O+][B-](F)(F)OC(c3ccc4cc(OC)ccc4c3)=C2)c1
absorption maximum (in ClCCl): 427 nm

CCOC(=O)CCOc1ccc(C(c2c(C)[nH]c3ccccc23)c2c(C)[nH]c3ccccc23)cc1
absorption maximum (in C1CCCCC1): 290 nm

Cc1ccc(/C=C/c2ccccc2-[n+]2noc([O-])c2C)cc1
absorption maximum (in C1CCCCC1): 314 nm
absorption maximum (in CC#N): 310 nm
absorption maximum (in CCO): 312 nm

CCCCCCc1cc2c(=O)c3cc(CCCCCC)cc4c(=O)c5cc(CCCCCC)cc6c(=O)c(c1)c2n(c34)c65
absorption maximum (in ClCCl): 424 nm

CCn1c2ccccc2c2cc(C#Cc3cc(C#Cc4ccc5c(c4)c4ccccc4n5CC)ncn3)ccc21
absorption maximum (in C1CCOC1): 382 nm
absorption maximum (in CCOC(C)=O): 379 nm
absorption maximum (in CN(C)C=O): 386 nm
absorption maximum (in Cc1ccccc1): 383 nm
absorption maximum (in ClCCl): 386 nm

O=C(O)c1ccc(-c2nc(-c3ccccc3)c3ccccn23)cc1
absorption maximum (in CC#N): 372 nm

O=C1c2ccccc2-c2ccccc21
absorption maximum (in C1CCCCC1): 382 nm
absorption maximum (in CC#N): 377 nm
absorption maximum (in CCO): 379 nm
absorption maximum (in c1ccccc1): 380 nm

Nc1ccc2c(ccc3[n+]2[B-](F)(F)n2c-3cc3c4ccccc4c4ccccc4c32)c1
absorption maximum (in ClCCl): 482 nm

COC(=O)COc1ccc(/C=C/C2=[N+]3C(=C(c4ccc(N(C)C)cc4)c4c(C)cc(C)n4[B-]3(F)F)C(C)=C2)cc1
absorption maximum (in CO): 566 nm

Cc1cc2c(ccc3c(C)[n+](C)c(C)cc32)c(C)[n+]1C
absorption maximum (in CC#N): 406 nm

CC1(C)c2ccccc2N(c2cc[n+]3c(c2)-c2ccccc2O[B-]3(F)F)c2ccccc21
absorption maximum (in Cc1ccccc1): 358 nm

N#Cc1c(N2CCCCC2)cc(-c2ccc(O)cc2)c2c1-c1cccc3cccc-2c13
absorption maximum (in O): 432 nm

COc1ccc(-c2oc3cccc4c5c(-c6ccc(OC)cc6)c(=N)oc6cccc(c2c34)c65)cc1
absorption maximum (in ClC(Cl)Cl): 408 nm

CCOC(=O)CCCCCn1c2ccc(Cl)cc2c(=O)c2cc3c(cc21)c(=O)c1cc(Cl)ccc1n3CCCCCC(=O)OCC
absorption maximum (in CO): 534 nm

CCOC(=O)c1c2c3c(ccc(F)c3c3cc4c(cc13)[Si](C)(C)O[Si]4(C)C)N(C)C2=O
absorption maximum (in CC#N): 380 nm

Cc1c2ccccc2c(C2=C3C=CC=[N+]3[B-](F)(F)n3cccc32)c2ccccc12
absorption maximum (in CC#N): 502 nm
absorption maximum (in CCCCCC): 504 nm
absorption maximum (in CCO): 503 nm
absorption maximum (in CN(C)C=O): 506 nm
absorption maximum (in Cc1ccccc1): 508 nm
absorption maximum (in ClCCl): 506 nm

CCCCN1C(=O)C(=C/C=C/C=C/C=C2N(CCCC)c3ccccc3N2CCCC)C(=O)N(CCCC)C1=S
absorption maximum (in CC#N): 540 nm
absorption maximum (in CCCCCC): 678 nm
absorption maximum (in CCO): 492 nm
absorption maximum (in CN(C)C=O): 549 nm
absorption maximum (in CO): 483 nm
absorption maximum (in Cc1ccccc1): 689 nm
absorption maximum (in ClC(Cl)Cl): 658 nm
absorption maximum (in ClCCl): 642 nm
absorption maximum (in OCC(F)(F)F): 464 nm

O=[N+]([O-])c1ccc(C#Cc2ccc([N+](=O)[O-])cc2)cc1
absorption maximum (in CO): 329 nm
absorption maximum (in ClCCl): 335 nm

c1cc2ccc1-c1ccc(cc1)-c1ccc([se]1)-c1ccc(cc1)-c1ccc(cc1)-c1ccc([se]1)-c1ccc(cc1)-c1ccc(cc1)-c1ccc-2[se]1
absorption maximum (in C1CCOC1): 365 nm
